Reference: patent publication US20020037516A1, “Assay for identification of a test compound” (priority 2000, published 2002)

Key:
[1] = test system: rRNA; assay: rRNA methylation by Erm E in the presence of erythromycin; type: biochemical; settings: erythromycin 200 μM
Method: Erm E is inhibited by erythromycin (FIG. 21). Erythromycin inhibits enzyme activity most noticably when the RNA is folded in the presence of erythromycin (FIG. 21). One embodiment of the invention may therefore involve folding of the RNA in the presence of compound before measuring the activity of the methyltransferase on the RNA.
The reaction was performed in 50 μl 50 mM Tris/Cl, pH 7.5, 4 mM MgCl2, 40 mM KCl, 10 mM DTT, for 120 min at 37° C. with 0.04 μM rRNA and 6 μCi [3H]SAM. The erythromycin concentration was 200 μM.

[2] = test system: E. coli GAR; assay: TSR methyltransferase methylation of GAR RNA with [3H]SAM, titration of inhibitor; type: biochemical; settings: 23S (or GAR), competition with methyltransferase at A-1067; FIG. 6; read-out: affinity (binding measured by following inhibition of methylation)
Method: RNA (0-2 μM) was incubated in 25 mM HEPES-KOH, pH 7.5, 25 mM NH4Cl, 5 mM MgCl2, 5 mM DTT with test compounds. The methylation reaction was started by adding 8 pmol TSR methyltransferase and 1 μCi [^3H]SAM (Amersham-Pharmacia). The final assay volume was 100 μl. The reaction was incubated 15 min at 25° C. and stopped by adding 1 vol. 2% TFA. The TFA precipitate was filtered through a 96-well glassfiber filterplate (Millipore Multiscreen FB 1.0 μM Glass Fiber Type B Filter). The filters were washed with 2 vol. of 2% TFA. 50 μl scintillation cocktail (Wallac Optiszint) was added to each well of the dried filter plate and incorporated [^3H]-radioactivity was determined in a Wallac Trilux scintillation counter.
The L11 ribosomal protein is an integral part of the GAR, and its presence inhibits methyltransferase activity [Bechthold & Floss, 1994]. Various concentrations of L11 were incubated with E. coli GAR and [^3H]SAM as described above. As expected, methylation was inhibited as L11 concentration increased.
Methyltransferase and thiostrepton thus compete for binding at A-1067, and binding of thiostiepton to 23S (or GAR) can be measured by following inhibition of methylation.

[3] = molecular target: tsr methyltransferase (thiostrepton resistance methyltransferase); assay: Inhibition of tsr methyltransferase methylation of mGAR (GTPase activating region of 23S rRNA): [3H]SAM incorporation, mGAR titration, 96-well (FIG. 7); type: biochemical, Streptomyces azureus; settings: compounds at 50 μM, 25° C., 30 min, increasing mGAR, Ki=[I]/((Km(I)/Km)−1), tsr gene cloned, overexpressed in E. coli, read-out: TSR methyltransferase (GAR RNA methylation) Ki
Method: The Km for each titration is determined by fitting the data to the equation
Bmax: incorporation at RNA substrate saturation in cpm.
[RNA]: concentration of target RNA.
The Ki value for a compound is determined by relating the Km in the presence and the Km in the absence of compound using the equation:
[I]: concentration of the inhibitory compound
Km(I): Michaelis constant in the presence of inhibitor
Km: Michaelis constant in the absence of inhibitor
In an preferred format, enzyme binding and activity is measured by measuring the Michealis constant (Km) of the enzymatic reaction in the absence and presence of a constant concentration of the test compound. Increasing amounts of target RNA are incubated with the modifying enzyme and the yield of modified RNA product is measured for each point. Data from this substrate titration are fitted to a saturation curve by non-linear regression. The Michaelis constant Km is determined from the curve-fitting by routine methods. […]
RNA (0-2 μM) was incubated in 25 mM HEPES-KOH, pH 7.5, 25 mM NH4Cl, 5 mM MgCl2, 5 mM DTT with test compounds. […] 50 μl scintillation cocktail (Wallac Optiszint) was added to each well of the dried filter plate and incorporated [^3H]-radioactivity was determined in a Wallac Trilux scintillation counter. […]

[4] = test system: mGAR; assay: Inhibition of tsr methylation activity by test compounds in 96 well plate, mGAR titration; type: biochemical; settings: compound at 50 μM, 25° C., 30 minutes, increasing amounts of mGAR; FIG. 7
Method: The Ki value for a compound is determined by relating the Km in the presence and the Km in the absence of compound using the equation: […]
In an preferred format, enzyme binding and activity is measured by measuring the Michealis constant (Km) of the enzymatic reaction in the absence and presence of a constant concentration of the test compound. Increasing amounts of target RNA are incubated with the modifying enzyme and the yield of modified RNA product is measured for each point. Data from this substrate titration are fitted to a saturation curve by non-linear regression. The Michaelis constant Km is determined from the curve-fitting by routine methods.
Test compounds were assayed in a 96 well plate for inhibition of tsr methylation activity at 50 μM. Compounds were incubated at 25° C. for 30 minutes in the presence of [^3H]SAM and enzyme, and increasing amounts of mGAR were added. RNA was precipitated with 2% TFA, filtered, and scintillation counted in a Wallac Trilux instrument.

SMILES: CC[C@H]1OC(=O)[C@H](C)[C@@H](O[C@H]2C[C@@](C)(OC)[C@@H](O)[C@H](C)O2)[C@H](C)[C@@H](O[C@@H]2O[C@H](C)C[C@H](N(C)C)[C@H]2O)[C@](C)(O)C[C@@H](C)C(=O)[C@H](C)[C@@H](O)[C@]1(C)O [erythromycin]
- refolded rRNA methylation by Erm E ([1]; refolded rRNA 0.04 μM, 120 min at 37° C., FIG. 21): decrease
- effect on rRNA methylation by Erm E ([1]; unfolded rRNA): no effect

SMILES: C=C(NC(=O)C(=C)NC(=O)c1csc(C2=N[C@@H]3c4csc(n4)[C@H]4NC(=O)c5csc(n5)[C@H]([C@](C)(O)[C@@H](C)O)NC(=O)[C@H]5CSC(=N5)/C(=C/C)NC(=O)[C@H]([C@@H](C)O)NC(=O)c5csc(n5)[C@]3(CC2)NC(=O)[C@H](C)NC(=O)C(=C)NC(=O)[C@H](C)NC(=O)[C@H]([C@@H](C)CC)N[C@@H]2C=Cc3c([C@H](C)O)cc(nc3[C@H]2O)C(=O)O[C@@H]4C)n1)C(N)=O [thiostrepton]
- Kd [2]: 1.1 µM

SMILES: NC[C@@H]1O[C@H](O[C@H]2[C@@H](O)[C@H](O[C@@H]3[C@@H](O)[C@H](N)C[C@H](N)[C@H]3O[C@H]3O[C@H](CN)[C@@H](O)[C@H](O)[C@H]3N)O[C@@H]2CO)[C@H](N)[C@@H](O)[C@@H]1O [Neomycin, neomycin]
- Ki [3]: 9 µM

SMILES: NC[C@@H]1O[C@H](O[C@H]2[C@@H](O)[C@H](O[C@@H]3[C@@H](O)[C@H](N)C[C@H](N)[C@H]3O[C@H]3O[C@H](CN)[C@@H](O)[C@H](O)[C@H]3N)O[C@@H]2CO)[C@H](N)[C@@H](O)[C@@H]1O [neomycin]
- inhibition of methyltransferase (methylation) [4]: significant inhibition
